Laboratory results taken from US9447051B2, “Diaminopyrimidines and uses thereof” (AbbVie inc., priority 2012, dated 2016).
pEC50: −log10 of the molar value.

Tests used:
[1] = system: RSV (Group A, Long Strain); assay: Antiviral (RSV) assay: cytopathetic effect (CPE) protection assay in HEp-2 cells, MTT readout; format: cell-based, human respiratory syncytial virus (RSV); settings: human respiratory syncytial virus, HEp-2, 96 h
Experimental: HEp-2 cells and RSV (Group A, Long Strain) were obtained from the American Type Culture Collection (Manassas, Va.). A cytopathetic effect (CPE) protection assay was performed to determine the ability of a compound to protect the cells from viral infection and thus the CPE induced by viral infection. 96-well plates were first seeded with 3×10^3 HEp-2 cells per well in Dulbecco's modified Eagle's medium (DMEM) containing 10% fetal bovine serum (FBS). One day after the cells were seeded, they were preincubated with serial dilutions of compounds prepared in 100 μL assay medium (DMEM mixed with F12 medium at a 1:1 ratio, supplemented with 2% FBS and 1 mM sodium pyruvate) for 1 hour at 37° C. 100 μL of assay medium containing 0.2 multiplicity of infection (MOI) of RSV was then added to each well of cells. In addition to wells containing infected cells incubated with compounds, each plate also contained replicates of two kinds of controls: (1) Virus control contained cells infected with 0.2 MOI of RSV in assay medium, (2) Uninfected cell control contained cells incubated with assay medium only. After 4 days of incubation at 37° C., the viability of cells was assessed using MTT (Thiazolyl blue tetrazolium bromide, Sigma). A stock solution of MTT, at a concentration of 4 mg/mL in phosphate-buffered saline, was added to all wells at 25 μL per well. Plates were further incubated for 4 hours, and each well was then treated with 50 μL of a solution containing 20% sodium dodecyl sulfate (SDS) and 0.02 N HCl. After an overnight incubation, the plates were measured on a BioTek® microtiter plate reader at wavelengths of 570 nm and 650 nm. The MTT detection is based on the fact that viable (uninfected) cells can reduce the tetrazolium salts into colored formazan products, which can then be quantitated by spectrometry. […] Compounds were tested to determine both their antiviral and toxicity to determine their therapeutic window. Determination of the EC50 and TD50 of these active compounds were repeated one additional time to confirm the window.

HEp-2 cells = assay: Cytotoxicity (MTT) assay; format: cell-based; settings: Table 2; uninfected HEp-2 cells, 4 days incubation, 50% toxicity dose
Experimental: A cytopathetic effect (CPE) protection assay was performed to determine the ability of a compound to protect the cells from viral infection and thus the CPE induced by viral infection. 96-well plates were first seeded with 3×10^3 HEp-2 cells per well in Dulbecco's modified Eagle's medium (DMEM) containing 10% fetal bovine serum (FBS). One day after the cells were seeded, they were preincubated with serial dilutions of compounds prepared in 100 μL assay medium (DMEM mixed with F12 medium at a 1:1 ratio, supplemented with 2% FBS and 1 mM sodium pyruvate) for 1 hour at 37° C. 100 μL of assay medium containing 0.2 multiplicity of infection (MOI) of RSV was then added to each well of cells. In addition to wells containing infected cells incubated with compounds, each plate also contained replicates of two kinds of controls: (1) Virus control contained cells infected with 0.2 MOI of RSV in assay medium, (2) Uninfected cell control contained cells incubated with assay medium only. After 4 days of incubation at 37° C., the viability of cells was assessed using MTT (Thiazolyl blue tetrazolium bromide, Sigma). A stock solution of MTT, at a concentration of 4 mg/mL in phosphate-buffered saline, was added to all wells at 25 μL per well. Plates were further incubated for 4 hours, and each well was then treated with 50 μL of a solution containing 20% sodium dodecyl sulfate (SDS) and 0.02 N HCl. After an overnight incubation, the plates were measured on a BioTek® microtiter plate reader at wavelengths of 570 nm and 650 nm. The MTT detection is based on the fact that viable (uninfected) cells can reduce the tetrazolium salts into colored formazan products, which can then be quantitated by spectrometry. Based on the spectrometric absorbance of each sample, the percent of protection from CPE, which is an indicator of protection from viral infection, can be calculated for each compound and the 50% effective concentrations (EC50) can be calculated using a nonlinear regression curve fitting equation provided by the GraphPad Prism® 4 software.
Cytotoxicity of the compounds was determined in experiments done in parallel with the antiviral assays. To do this, 100 μL of assay medium was added to the wells of HEp-2 cells pretreated with 100 μL serially diluted compounds as described above. After 4 days of incubation, the viability of the cells was determined by the MTT assay in the same way as detailed in the “Antiviral Assay” method. Results were expressed as 50% toxicity dose (TD50) values.
Compounds were tested to determine both their antiviral and toxicity to determine their therapeutic window. Determination of the EC50 and TD50 of these active compounds were repeated one additional time to confirm the window.

[2] = Table 1, 0.2 MOI RSV, 4 days incubation, protection from CPE
[3] = Table 2, 0.2 MOI RSV, 4 days, determination repeated to confirm window

For `Cc1nc(NCc2ccccn2)nc(NC2CCCCC2)c1C` [Example 1, N^4-cyclohexyl-5,6-dimethyl-N^2-(pyridin-2-ylmethyl)pyrimidine-2,4-diamine], the pEC50 [1, 2] was 6.60, the pEC50 [1, 3] was 6.82 and the “MTT TD50” value (HEp-2 cells) was 23.00 µM.
In the case of `Cc1cc(NC2CCCCC2)nc(NCc2ccccn2)n1` [Example 4, N^4-cyclohexyl-6-methyl-N^2-(pyridin-2-ylmethyl)pyrimidine-2,4-diamine], the pEC50 [1, 2] was 4.63, the pEC50 [1, 3] was 4.63 and the “MTT TD50” value (HEp-2 cells) was 39.00 µM.
`Cc1cc(NC2CCCCCC2)nc(NCc2ccccn2)n1` [Example 3, N^4-cycloheptyl-6-methyl-N^2-(pyridin-2-ylmethyl)pyrimidine-2,4-diamine] was tested, and the pEC50 [1, 2] was 5.55, the pEC50 [1, 3] was 5.55 and the “MTT TD50” value (HEp-2 cells) was 8.04 µM.
In the case of `Cc1ccccc1CNc1nc(NCc2ccccn2)nc2c1CCC2` [Example 2, N^4-(2-methylbenzyl)-N^2-(pyridin-2-ylmethyl)-6,7-dihydro-5H-cyclopenta[d]pyrimidine-2,4-diamine], the pEC50 [1, 2] was 5.69, the pEC50 [1, 3] was 5.69 and the “MTT TD50” value (HEp-2 cells) was 7.17 µM.
Molecule `Cc1cc(Nc2nc(NCc3ccccn3)nc(C)c2C)no1` [Example 96, 5,6-dimethyl-N^4-(5-methyl-1,2-oxazol-3-yl)-N^2-(pyridin-2-ylmethyl)pyrimidine-2,4-diamine] has a pEC50 [1, 2] of 4.82.
`Cc1cccc(F)c1Nc1nc(NCc2ccccn2)nc(C)c1C` [Example 72, N^4-(2-fluoro-6-methylphenyl)-5,6-dimethyl-N^2-(pyridin-2-ylmethyl)pyrimidine-2,4-diamine] gave a pEC50 [1, 2] of 7.11.
In the case of `Cc1nc(NC(C)c2ccccn2)nc(NC2CCCCC2)c1C` (stereo not shown) [Example 87, N^4-cyclohexyl-5,6-dimethyl-N^2-[1-(pyridin-2-yl)ethyl]pyrimidine-2,4-diamine], the pEC50 [1, 2] was < 4.49.
`Cc1nc(NCc2ccccn2)nc(Nc2ccc(OC(F)(F)F)cc2)c1C` [Example 56, 5,6-dimethyl-N^2-(pyridin-2-ylmethyl)-N^4-[4-(trifluoromethoxy)phenyl]pyrimidine-2,4-diamine] was tested, and the pEC50 [1, 2] was 6.40.
`Cc1nc(NCc2ccccn2)nc(Nc2ccc3c(c2)OCO3)c1C` [Example 61, N^4-(1,3-benzodioxol-5-yl)-5,6-dimethyl-N^2-(pyridin-2-ylmethyl)pyrimidine-2,4-diamine] gave a pEC50 [1, 2] of 7.40.
`Cc1nc(NCc2ccccn2)nc(N[C@H]2CC[C@H](O)CC2)c1C` [Example 79, trans-4-({5,6-dimethyl-2-[(pyridin-2-ylmethyl)amino]pyrimidin-4-yl}amino)cyclohexanol] gave a pEC50 [1, 2] of 6.21.
Work on `Cc1nc(NCc2ccccn2)nc(Nc2nncs2)c1C` [Example 94, 5,6-dimethyl-N^2-(pyridin-2-ylmethyl)-N^4-(1,3,4-thiadiazol-2-yl)pyrimidine-2,4-diamine] yielded a pEC50 [1, 2] of 5.62.
`Cc1nc(NCc2ccccn2)nc(NC2CCCCCC2)c1C` [Example 45, N^4-cycloheptyl-5,6-dimethyl-N^2-(pyridin-2-ylmethyl)pyrimidine-2,4-diamine] was tested, and the pEC50 [1, 2] was 7.74.
For `Cc1nc(NCc2ccccn2)nc(NC2CCOc3ccccc32)c1C` (stereo not shown) [Example 36, N^4-(3,4-dihydro-2H-chromen-4-yl)-5,6-dimethyl-N^2-(pyridin-2-ylmethyl)pyrimidine-2,4-diamine], the pEC50 [1, 2] was 6.28.
For `Cc1ccnc(CNc2nc(C)c(C)c(NC3CCCCC3)n2)c1` [Example 17, N^4-cyclohexyl-5,6-dimethyl-N^2-[(4-methylpyridin-2-yl)methyl]pyrimidine-2,4-diamine], the pEC50 [1, 2] was 7.47.
`Cc1nc(NCc2ccccn2)nc(NC2CCCc3ccccc32)c1C` (stereo not shown) [Example 35, 5,6-dimethyl-N^2-(pyridin-2-ylmethyl)-N^4-(1,2,3,4-tetrahydronaphthalen-1-yl)pyrimidine-2,4-diamine] showed a pEC50 [1, 2] of 6.92.
For `Cc1nc(NCc2ccccn2)nc(NC2CCNCC2)c1C` [Example 83, 5,6-dimethyl-N^4-(piperidin-4-yl)-N^2-(pyridin-2-ylmethyl)pyrimidine-2,4-diamine], the pEC50 [1, 2] was 4.48.
`Cc1nc(NCc2ccccn2)nc(Nc2ccc(F)c(F)c2)c1C` [Example 58, N^4-(3,4-difluorophenyl)-5,6-dimethyl-N^2-(pyridin-2-ylmethyl)pyrimidine-2,4-diamine] was tested, and the pEC50 [1, 2] was 7.20.
For `Cc1ccc(O)c(CNc2nc(C)c(C)c(NC3CCCCC3)n2)n1` [Example 7, 2-({[4-(cyclohexylamino)-5,6-dimethylpyrimidin-2-yl]amino}methyl)-6-methylpyridin-3-ol], the pEC50 [1, 2] was < 4.92.
`Cc1nc(N[C@H](C)c2ccccc2)nc(NC2CCCCC2)c1C` [Example 15, N^4-cyclohexyl-5,6-dimethyl-N^2-[(1R)-1-phenylethyl]pyrimidine-2,4-diamine] was tested, and the pEC50 [1, 2] was < 5.72.
With `Cc1nc(NCc2ccccn2)nc(Nc2ccccc2F)c1C` [Example 51, N^4-(2-fluorophenyl)-5,6-dimethyl-N^2-(pyridin-2-ylmethyl)pyrimidine-2,4-diamine] the pEC50 [1, 2] was 6.49.
